Assay results as given in patent US12410160B2 (Gilead Sciences, Inc., priority 2021, dated 2025).
Like-named read-outs stand apart in the source and are kept apart here.

Assays:
[1] = molecular target: KHK-C expressed in NRK-52E cells (Homo sapiens (Human), UniProt P50053); experiment: KHK-C Cell-based Assay (EC50), NRK CTG, fructose-mediated ATP-depletion
human KHK-C = human KHK-C (Homo sapiens (Human), UniProt P50053); experiment: KHK Biochemical Assay (IC50), ADP-Glo, KHK-C; conditions: average of at least two separate assays
human KHK-C, sequence (P50053 whole entry): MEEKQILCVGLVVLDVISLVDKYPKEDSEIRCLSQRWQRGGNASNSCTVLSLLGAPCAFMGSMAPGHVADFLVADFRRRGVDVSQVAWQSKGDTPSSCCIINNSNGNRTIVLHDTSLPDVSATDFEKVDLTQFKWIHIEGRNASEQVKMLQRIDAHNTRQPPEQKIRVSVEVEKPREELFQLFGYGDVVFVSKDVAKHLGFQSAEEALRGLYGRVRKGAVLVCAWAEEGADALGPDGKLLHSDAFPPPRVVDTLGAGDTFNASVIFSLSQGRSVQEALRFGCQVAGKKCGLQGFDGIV
How it was run: (§1)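 ADP-Glo luminescence measured ADP made over a 4 h room-temperature reaction of ATP plus fructose, started after 30 min compound–enzyme pre-incubation. Buffer: 50 mM Hepes pH 7.4, 140 mM KCl, 5 mM MgCl2, 0.01% Triton-X. Enzyme was His-tagged, BL21 (DE3)-expressed, Ni-NTA-purified; compounds in 1:3 DMSO dilution series.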

[2] = pKa analysis by capillary electrophoresis (pKa PRO Analyzer, co-solvent method); format: physicochemical; conditions: co-solvent method (60% to 30% methanol buffers); for pKa: methanol/aqueous co-solvent buffers
Procedure: The 10 mM DMSO stock solutions of test articles (TAs) were diluted 100-fold with either 2 mM HCl or 2 mM NaOH and methanol. The final concentration of methanol was 60%, TA concentration was 100 μM, and DMSO concentration was 1%. The TAs were transferred into 24 consecutive wells of a 96-well plate for analysis using the co-solvent method. […] All data was obtained using a pKa. PRO Analyzer (AATI, Ankey, IA) by performing four consecutive CE runs from 60% to 30% co-solvent buffers. Norfloxacin was used as a daily performance-indicating standard. The pKa values were predicted by using pKa. Estimator® software (AATI, Ankey, IA) by relating molecular weight of the TA to its mobility.

human KHK-A = human KHK-A (Homo sapiens (Human), UniProt P50053); experiment: KHK Biochemical Assay (IC50), ADP-Glo, KHK-A; conditions: average of at least two separate assays
human KHK-A, sequence (P50053 other isoform, or with tags, fused parts or gaps): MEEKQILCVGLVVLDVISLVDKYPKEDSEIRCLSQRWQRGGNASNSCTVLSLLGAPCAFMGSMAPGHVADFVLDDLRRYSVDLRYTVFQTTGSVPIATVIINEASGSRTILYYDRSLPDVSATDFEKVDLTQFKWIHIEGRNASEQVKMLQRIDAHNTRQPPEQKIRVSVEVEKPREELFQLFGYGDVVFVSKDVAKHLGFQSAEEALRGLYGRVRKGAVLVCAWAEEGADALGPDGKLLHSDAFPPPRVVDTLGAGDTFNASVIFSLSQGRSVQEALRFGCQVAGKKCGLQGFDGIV
How it was run: as §1

HepG2 cells = experiment: F1P Cell-Based Assay (EC50), 13C6-fructose-1-phosphate in HepG2 cells (cell culture medium or 50% human plasma); conditions: Homo sapiens
[3] = pH range 1.7-11.2, read-out: 1st pKa
[4] = pH range 1.7-11.2, read-out: 2nd pKa
[5] = HepG2, HepG2 cells, 50% human plasma, read-out: F1P 50% HP EC50

KHK-C expressed in NRK-52E cells, sequence (P50053 whole entry): as the sequence (P50053 whole entry) above

Row | SMILES | EC50 [1] | IC50 (human KHK-C) | pKa [2, 3] | IC50 (human KHK-C; ADP-Glo) | pKa [2, 4] | IC50 (human KHK-A; ADP-Glo) | IC50 (human KHK-A) | EC50 (HepG2 cells; [5]) | EC50 ([1]; read-out: NRK CTG EC50, NRK-52E cells, Cell-Titer Glo, 25 mM fructose, 48 hours) | 1st pKa ([2]; pH range 1.7-11.2) | EC50 (HepG2 cells; HepG2, read-out: F1P 10% FBS EC50, HepG2 cells, cell culture medium (10% FBS))
1 | C[C@H]1CCN1c1nc2c(c(-c3cn(C4CNC4)nn3)n1)CCC2 [Example 461, (S)-4-(1-(azetidin-3-yl)-1H-1,2,3-triazol-4-yl)-2-(2-methylazetidin-1-yl)-6,7-dihydro-5H-cyclopenta[d]pyrimidine] | 116 nM | 17.2 nM | 3.9 |  |  |  |  |  |  |  | 
2 | C[C@H]1CCN1c1nc2c(c(-c3ccc(C4(N)CC4)cc3)n1)CCC2 [Example 295, (S)-1-(4-(2-(2-methylazetidin-1-yl)-6,7-dihydro-5H-cyclopenta[d]pyrimidin-4-yl)phenyl)cyclopropan-1-amine] | 6.2 nM |  | 4.25 | 1.4 nM | 8.01 | 2.6 nM |  |  |  |  | 
3 | C[C@H]1CCN1c1nc2c(c(-c3cn4ccnc4s3)n1)CCC2 [Example 121, (S)-2-(2-(2-methylazetidin-1-yl)-6,7-dihydro-5H-cyclopenta[d]pyrimidin-4-yl)imidazo[2,1-b]thiazole] | 87.3 nM |  | 3.68 | 24.1 nM | 5.35 | 29.3 nM |  |  |  |  | 
4 | C[C@H]1CCN1c1nc2c(c(-c3cccc(CN)c3)n1)CCC2 [Example 329, [3-[2-[(2S)-2-methylazetidin-1-yl]-6,7-dihydro-5H-cyclopenta[d]pyrimidin-4-yl]phenyl]methanamine] | 339 nM |  | 4.12 | 18.5 nM | 9.27 | 24.5 nM |  |  |  |  | 
5 | C[C@H]1[C@H](O)CN1c1nc(-c2cn(C3CNC3)nn2)c2c(n1)C(F)(F)CC2 [Example 647, (2S,3R)-1-[4-[1-(azetidin-3-yl)triazol-4-yl]-7,7-difluoro-5,6-dihydrocyclopenta[d]pyrimidin-2-yl]-2-methyl-azetidin-3-ol] | 225 nM |  | 8.2 |  |  |  |  |  |  |  | 
6 | C[C@H]1CCN1c1nc2c(c(-c3ccc(CNS(C)(=O)=O)s3)n1)CCC2 [Example 460, N-[[5-[2-[(2S)-2-methylazetidin-1-yl]-6,7-dihydro-5H-cyclopenta[d]pyrimidin-4-yl]-2-thienyl]methyl]methanesulfonamide] | 23.6 nM | 5.2 nM | 4.66 |  | 11.2 |  | 10.9 nM |  |  |  | 
7 | C[C@H]1CCN1c1nc2c(c(-c3cccc(CN4CCC4)c3)n1)CCC2 [Example 347, 4-[3-(azetidin-1-ylmethyl)phenyl]-2-[(2S)-2-methylazetidin-1-yl]-6,7-dihydro-5H-cyclopenta[d]pyrimidine] | 17.1 nM |  | 3.69 | 23.8 nM | 9.16 | 22.7 nM |  |  |  |  | 
8 | C[C@H]1CCN1c1nc2c(c(-c3ccc4c(N)nc(N)nc4c3)n1)CCC2 [Example 147, (S)-7-(2-(2-methylazetidin-1-yl)-6,7-dihydro-5H-cyclopenta[d]pyrimidin-4-yl)quinazoline-2,4-diamine] | 35.3 nM |  | 3.59 | 18.7 nM | 6.43 | 12.3 nM |  |  |  |  | 
9 | C[C@H]1CCN1c1nc2c(c(-c3cnn(C)c3)n1)CCC2 [Example 23, (S)-4-(1-methyl-1H-pyrazol-4-yl)-2-(2-methylazetidin-1-yl)-6,7-dihydro-5H-cyclopenta[d]pyrimidine] | 197 nM |  | 4.97 | 66.5 nM |  | 68.9 nM |  |  |  |  | 
10 | C[C@H]1CCN1c1nc2c(c(-c3ccc4cnc(O)cc4c3)n1)CCC2 [Example 380, 6-[2-[(2S)-2-methylazetidin-1-yl]-6,7-dihydro-5H-cyclopenta[d]pyrimidin-4-yl]isoquinolin-3-ol] | 75.7 nM |  | 4.21 | 7.9 nM | 9.04 | 13 nM |  |  |  |  | 
11 | C[C@H]1CCN1c1nc2c(c(-c3ccns3)n1)CCC2 [Example 13, (S)-5-(2-(2-methylazetidin-1-yl)-6,7-dihydro-5H-cyclopenta[d]pyrimidin-4-yl)isothiazole] | 89.4 nM |  | 3.77 | 40.8 nM |  | 34 nM |  |  |  |  | 
12 | C[C@H]1CCN1c1nc2c(c(-c3ccc4c(c3)OCC4N)n1)CCC2 (stereo partly drawn) [Example 754, 6-[2-[(2S)-2-methylazetidin-1-yl]-6,7-dihydro-5H-cyclopenta[d]pyrimidin-4-yl]-2,3-dihydrobenzofuran-3-amine] | 14.6 nM | 1.9 nM | 4.2 |  |  |  |  | 11.7 nM |  |  | 
13 | C[C@H]1[C@H](F)CN1c1nc(-c2ccc([C@]3(N)C[S@@](=N)(=O)C3)cc2)c2c(n1)C(F)(F)CC2 [Example 797, (1R,3s)-3-amino-3-(4-(7,7-difluoro-2-((2S,3R)-3-fluoro-2-methylazetidin-1-yl)-6,7-dihydro-5H-cyclopenta[d]pyrimidin-4-yl)phenyl)-1-imino-1λ^6-thietane 1-oxide] |  |  |  | 0.2 nM |  | 7.3 nM |  |  | 16.4 nM | 4.7 | 
14 | C[C@H]1CCN1c1nc2c(c(-c3ccncc3)n1)CCC2 [Example 22, (S)-2-(2-methylazetidin-1-yl)-4-(pyridin-4-yl)-6,7-dihydro-5H-cyclopenta[d]pyrimidine] | 288 nM |  | 2.86 | 99.1 nM | 4.74 | 147 nM |  |  |  |  | 
15 | C[C@H]1CCN1c1nc2c(c(-c3ccc(C4(N)COC4)cc3)n1)CCC2 [Example 131, (S)-3-(4-(2-(2-methylazetidin-1-yl)-6,7-dihydro-5H-cyclopenta[d]pyrimidin-4-yl)phenyl)oxetan-3-amine] | 10.9 nM |  | 4.25 | 2.6 nM | 6.48 | 6 nM |  |  |  |  | 
16 | C[C@H]1CCN1c1nc2c(c(-c3ccc(C4COCCN4)cc3)n1)CCC2 (stereo partly drawn) [Example 755, 3-[4-[2-[(2S)-2-methylazetidin-1-yl]-6,7-dihydro-5H-cyclopenta[d]pyrimidin-4-yl]phenyl]morpholine] | 37 nM | 30.1 nM | 7.1 |  |  |  |  |  |  |  | 
17 | C[C@H]1CCN1c1nc2c(c(-c3ccc4c(O)nc(O)cc4c3)n1)CCC2 [Example 381, 6-[2-[(2S)-2-methylazetidin-1-yl]-6,7-dihydro-5H-cyclopenta[d]pyrimidin-4-yl]isoquinoline-1,3-diol] | > 5000 nM |  | 4.12 | 89.7 nM | 8.07 | 18.9 nM |  |  |  |  | 
18 | C[C@H]1CCN1c1nc2c(c(-c3ccc(C(N)CS(C)(=O)=O)cc3)n1)CCC2 (stereo partly drawn) [Example 768, 1-(4-(2-((S)-2-methylazetidin-1-yl)-6,7-dihydro-5H-cyclopenta[d]pyrimidin-4-yl)phenyl)-2-(methylsulfonyl)ethan-1-amine] | 32.1 nM | 18.7 nM | 4.2 |  |  |  |  |  |  |  | 
19 | C[C@H]1CCN1c1nc2c(c(-c3cc[nH]n3)n1)CCC2 [Example 18, (S)-2-(2-methylazetidin-1-yl)-4-(1H-pyrazol-3-yl)-6,7-dihydro-5H-cyclopenta[d]pyrimidine] | 144 nM |  | 4.52 | 73.1 nM |  | 55.1 nM |  |  |  |  | 
20 | C[C@H]1[C@H](F)CN1c1nc(-c2ccc(C(N)CS(C)(=O)=O)cc2)c2c(n1)C(F)(F)CC2 (stereo partly drawn) [Example 773, 1-(4-(7,7-difluoro-2-((2S,3R)-3-fluoro-2-methylazetidin-1-yl)-6,7-dihydro-5H-cyclopenta[d]pyrimidin-4-yl)phenyl)-2-(methylsulfonyl)ethan-1-amine] |  | 2.3 nM | 6.3 |  |  |  | 8.6 nM | 24.6 nM |  |  | 12.7 nM
